# From patent publication US7868204B2, “Inhibitors of histone deacetylase” (MethylGene Inc., priority 2001, dated 2011)
# Columns and labels:
# [1] = target: T1, cloned recombinant human HDAC-1 (Homo sapiens, UniProt Q13547); test: Human HDAC-1 enzyme inhibition, Assay 1 ([3H]-acetylated histone substrate, scintillation counting); type: biochemical; details: Table 5F; read-out: Human HDAC-1 IC50
# T1 construct: made in house; host or cells: Baculovirus insect cell expression system
# Outline: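 Recombinant human HDAC-1 from baculovirus-infected insect cells, preincubated with compound 30 min at 4° C. before reaction. Released [3H]-acetic acid extracted with ethyl acetate and counted by scintillation. IC50 taken from dose-response curves as concentration giving half-maximal inhibition.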
# [2] = system: acetylated histone H-4 in T24 human bladder cancer cells; test: Histone H4 acetylation in whole cells by immunoblots; type: cell-based; details: T-24, Table 5F, 16 h, read-out: H4 Ac (T24) EC50
# Outline: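 T24 cells were treated with HDAC inhibitors for 16 h; […] total histone protein was resolved by SDS/PAGE and immunoblotted with polyclonal anti-acetylated H4 antibody. ECL detection, with signal quantified by densitometry.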
# [3] = system: HCT116 cells; test: MTT assay; type: cell-based; details: Homo sapiens
# Outline: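 Cells plated one day before dosing, then exposed to compound 72 h at 37 °C, 5% CO2. MTT at 0.5 mg/ml final for 4 h, solubilized in DMF/SDS buffer pH 4.7; OD converted to cell number from a standard growth curve.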
# [4] = target: HDAC-1 (Homo sapiens, UniProt Q13547); test: Human HDAC-1 enzyme inhibition, Assay 2 (Boc-Lys(Ac)-AMC, Fluor-de-Lys fluorescence; compounds 604-617); type: biochemical; details: read-out: HDAC1 IC50
# Experimental: Assay 2. The following protocol was also used to assay the compounds of the invention. In the assay, the buffer used was 25 mM HEPES, pH 8.0, 137 mM NaCl, 2.7 mM […], 1 mM MgCl2 and the substrate was Boc-Lys(Ac)-AMC in a 50 mM stock solution in DMSO. The enzyme stock solution was 4.08 μg/mL in buffer. The compounds were pre-incubated (2 μl in DMSO diluted to 13 μl in buffer for transfer to assay plate) with enzyme (20 μl of 4.08 μg/ml) for 10 minutes at room temperature (35 μl pre-incubation volume). The mixture was pre-incubated for 5 minutes at room temperature. The reaction was started by bringing the temperature to 37° C. and adding […] substrate. Total reaction volume was 50 μl. […] A plate was incubated in the dark for 10 minutes at room temperature before reading (λEx=360 nm, λEm=470 nm, Cutoff filter at 435 nm). Assay 2 was used to measure HDAC activity of compounds 604-617 (Table 5). HDAC activity of the remaining compounds was measured by assay 1.
# [5] = HCT-116, 72 h, Table 5F, HCT116 cells, 72 hours
# T1 sequence (Q13547 whole entry): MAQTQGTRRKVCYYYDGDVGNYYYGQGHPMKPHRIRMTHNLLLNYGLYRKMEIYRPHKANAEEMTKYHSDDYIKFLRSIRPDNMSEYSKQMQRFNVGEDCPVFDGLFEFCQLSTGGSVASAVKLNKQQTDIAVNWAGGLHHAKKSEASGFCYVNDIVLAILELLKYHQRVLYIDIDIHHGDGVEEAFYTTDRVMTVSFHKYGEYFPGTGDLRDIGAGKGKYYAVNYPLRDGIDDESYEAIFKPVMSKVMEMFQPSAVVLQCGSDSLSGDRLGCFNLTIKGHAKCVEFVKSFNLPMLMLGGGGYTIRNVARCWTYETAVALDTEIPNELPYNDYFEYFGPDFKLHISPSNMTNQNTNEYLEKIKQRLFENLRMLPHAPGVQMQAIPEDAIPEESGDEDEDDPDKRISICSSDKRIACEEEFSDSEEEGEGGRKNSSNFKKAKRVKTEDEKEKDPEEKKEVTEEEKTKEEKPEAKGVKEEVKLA
# Chain of HDAC-1 (Q13547 whole entry): as above
Compound,IC50 [1] [nM],EC50 [2] [nM],"IC50 [3, 5] [nM]","IC50 ([3]; HCT-116, HCT116 cells) [nM]",IC50 [4] [nM]
"Nc1cscc1NC(=O)c1ccc(CNc2nc3ccc(OCCN4CCOCC4)cc3s2)cc1 [Cpd 573, N-(4-Amino-thiophen-3-yl)-4-{[6-(2-morpholin-4-yl-ethoxy)-benzothiazol-2-ylamino]-methyl}-benzamide]",7000,1000,400,–,–
"COc1cc(NCc2ccc(C(=O)Nc3cscc3N)cc2)cc(OC)c1OC [Cpd 574, N-(4-Amino-thiophen-3-yl)-4-[(3,4,5-trimethoxy-phenylamino)-methyl]-benzamide]",13000,3000,700,–,–
"COc1ccc2[nH]c(SCc3ccc(C(=O)Nc4cscc4N)cc3)nc2c1 [Cpd 575, N-(4-Amino-thiophen-3-yl)-4-(5-methoxy-1H-benzoimidazol-2-ylsulfanyl-methyl)-benzamide]",2000,1000,200,–,–
CNc1nc2ccc(NCc3ccc(C(=O)Nc4ccccc4N)cc3)cc2n1C [Cpd 580],4000,< 1000,300,–,–
"COc1ccc2[nH]c(SCc3ccc4oc(C(=O)Nc5ccccc5N)cc4c3)nc2c1 [Cpd 591, 5-(5-Methoxy-1H-benzoimidazol-2-ylsulfanyl-methyl)-benzofuran-2-carboxylic acid (2-amino-phenyl)amide]",4000,< 1000,300,–,–
"Nc1ccccc1NC(=O)c1ccc(Cc2coc3ccccc3c2=O)cc1 [compound 262, N-(2-Amino-phenyl)-4-(4-oxo-4H-chromen-3-ylmethyl)-benzamide]",500,1000,300,–,–
"Nc1ccccc1NC(=O)c1ccc(CC2COc3ccccc3C2)cc1 (centres unmarked) [compound 265, N-(2-Amino-phenyl)-4-chroman-3-ylmethyl-benzamide]",2000,3000,2000,–,–
"Nc1ccccc1NC(=O)c1ccc(CC2Cc3ccccc3C2=O)cc1 (centres unmarked) [compound 272, N-(2-Amino-phenyl)-4-(1-oxo-indan-2-ylmethyl)-benzamide]",2000,< 1000,600,–,–
"COc1ccc(N(Cc2ccc(C(=O)Nc3ccccc3N)cc2)C(=O)Nc2ccc(SC)cc2)cc1OC [compound 317, N-(2-Aminophenyl)-4-[1-(3,4-dimethoxyphenyl)-3-(4-methylsulfanylphenyl)-ureidomethyl]-benzamide]",2000,1000,300,–,–
"COc1ccc(NCc2ccc3oc(C(=O)Nc4ccccc4N)cc3c2)cc1OC [compound 587, 5-[(3,4-Dimethoxy-phenylamino)-methyl]-benzofuran-2-carboxylic acid (2-amino-phenyl)-amide]",5000,2000,800,–,–
"Nc1ccccc1NC(=O)c1ccc(N2CC[C@@H](Oc3cccnc3)C2)cc1 [compound 607, (R)-N-(2-aminophenyl)-4-(3-(pyridin-3-yloxy)pyrrolidin-1-yl)benzamide]",–,–,–,1000,639
"Nc1ccccc1NC(=O)c1ccc(N2CC[C@@H](Nc3ccccc3)C2)cc1 [compound 609, (R)-N-(2-aminophenyl)-4-(3-(phenylamino)pyrrolidin-1-yl)benzamide]",–,–,–,2000,1220
"Nc1ccccc1NC(=O)c1ccc(N2CC[C@H](Oc3ccc(C(=O)O)cc3)C2)cc1 [compound 612, (S)-4-(1-(4-(2-aminophenylcarbamoyl)phenyl)pyrrolidin-3-yloxy)benzoic acid]",–,–,–,39000,815
"Nc1ccccc1NC(=O)c1ccc(N2CC[C@H](Oc3ccc(Oc4ccccc4)cc3)C2)cc1 [compound 615, (S)-N-(2-aminophenyl)-4-(3-(4-phenoxyphenoxy)pyrrolidin-1-yl)benzamide]",–,–,–,4000,1380
"Nc1ccccc1NC(=O)c1ccc(N2CC[C@H](Oc3ccc([N+](=O)[O-])cc3)C2)cc1 [compound 616, (S)-N-(2-aminophenyl)-4-(3-(4-nitrophenoxy)pyrrolidin-1-yl)benzamide]",–,–,–,700,107

# Further lines, results first:
IC50 [1] [nM],EC50 [2] [nM],"IC50 [3, 5] [nM]","IC50 ([3]; HCT-116, HCT116 cells) [nM]",IC50 [4] [nM],Compound
2000,2000,500,–,–,"Cc1ccc(C#N)c(OCc2ccc(C(=O)Nc3ccccc3N)cc2)n1 [Cpd 577, N-(2-Amino-phenyl)-4-(3-cyano-6-methyl-pyridin-2-yloxymethyl)-benzamide]"
2000,1000,500,–,–,"CC(=O)Nc1sc(Cc2ccc(C(=O)Nc3ccccc3N)cc2)cc1C(N)=O [Cpd 579, 2-Acetylamino-5-[4-(2-amino-phenyl-carbamoyl)-benzyl]-thiophene-3-carboxamide]"
5000,< 1000,400,–,–,"COc1cc(CNc2ccc3oc(C(=O)Nc4ccccc4N)cc3c2)cc(OC)c1OC [Cpd 592, 5-(3,4,5-Trimethoxy-benzylamino)-benzofuran-2-carboxylic acid (2-amino-phenyl)-amide]"
3000,1000,300,–,–,"Cc1sc2ncn(Cc3ccc(C(=O)Nc4ccccc4N)cc3)c(=O)c2c1C [compound 259, N-(2-Amino-phenyl)-4-(5,6-dimethyl-4-oxo-4H-thieno[2,3-d]pyrimidin-3-ylmethyl)-benzamide]"
4000,5000,1000,–,–,"Nc1ccccc1NC(=O)c1ccc(CC2Oc3ccccc3NC2=O)cc1 (centres unmarked) [compound 270, N-(2-Amino-phenyl)-4-(3-oxo-3,4-dihydro-2H-benzo[1,4]oxazin-2-ylmethyl)-benzamide]"
4000,2000,900,–,–,"Nc1ccccc1NC(=O)c1ccc(CC2Cc3ccccc3C2O)cc1 (centres unmarked) [compound 275, N-(2-Amino-phenyl)-4-(1-hydroxy-indan-2-ylmethyl)-benzamide]"
4000,1000,300,–,–,"Cc1nn(-c2ccccc2)c(C)c1Cc1ccc(C(=O)Nc2ccccc2N)cc1 [compound 277, N-(2-Amino-phenyl)-4-(3,5-dimethyl-1-phenyl-1H-pyrazol-4-ylmethyl)-benzamide]"
500,1000,600,–,–,"CC(=O)Nc1sc(Cc2ccc(C(=O)Nc3ccccc3N)cc2)c(C)c1C#N [compound 281, N-(2-Amino-phenyl)-4-(5-acetylamino-4-cyano-3-methyl-thiophen-2-ylmethyl)-benzamide]"
7000,1000,400,–,–,"COc1cc(N2CC(c3ccc(C(=O)Nc4ccccc4N)cc3)OC2=O)cc(OC)c1OC (centres unmarked) [compound 297, N-(2-Amino-phenyl)-4-[2-oxo-3-(3,4,5-trimethoxy-phenyl)-oxazolidin-5-yl]-benzamide]"
900,1000,700,–,–,COc1ccc2[nH]c(SCc3ccc(C(=O)Nc4ccccc4O)cc3)nc2c1 [compound 311]
3000,1000,100,–,–,"COc1ccc2nc(SCc3ccc(C(=O)Nc4ccccc4N)cc3)[nH]c2c1 [compound 376, N-(2-Amino-phenyl)-4-(5-methoxy-1H-benzimidazol-2-yl-sulfanylmethyl)-benzamide]"
2000,3000,2000,–,–,"COc1cc(CNc2ccc3sc(C(=O)Nc4ccccc4N)cc3c2)cc(OC)c1OC [compound 590, 5-(3,4,5-Trimethoxy-benzylamino)-benzo[b]thiophene-2-carboxylic acid (2-amino-phenyl)-amide]"
–,–,–,750,266,"Nc1ccccc1NC(=O)c1ccc(N2CC[C@H](Oc3ccccc3)C2)cc1 [compound 610, (S)-N-(2-aminophenyl)-4-(3-phenoxypyrrolidin-1-yl)benzamide]"
–,–,–,600,97.6,"COC(=O)c1ccc(O[C@H]2CCN(c3ccc(C(=O)Nc4ccccc4N)cc3)C2)cc1 [compound 611, (S)-methyl-4-(1-(4-(2-aminophenylcarbamoyl)phenyl)pyrrolidin-3-yloxy)benzoate]"
